Test results published in patent publication US11541060B2, “Pharmaceutical compositions for treating pain” (FOREVER CHEER INTERNATIONAL LIMITED, priority 2017, dated 2023).
“Also recorded” adds a separate entry of the source.

Experiments:
[1] = system: morphine-induced place preference in mice; assay: Conditioned place preference (CPP) to morphine; type: in vivo
[2] = system: behavioral itching (scratching) response in mice; assay: Itching response to intradermal compound 48/80; type: in vivo; conditions: compound 48/80 100 μg/50 μl intradermal, FIG. 7
[3] = system: morphine tolerance in mice; assay: Morphine tolerance after repeated morphine injections (hotplate, tail-flick); conditions: mouse, in vivo
[4] = system: anxiety caused by nerve injury in mice; assay: Anxiety behavior test (EPM) after nerve injury; type: in vivo; conditions: FIG. 6
pre-LTP in ACC = pre-LTP in ACC cortical slices; type: cell-based, adult mice; conditions: 25 μM (SQ22356 'same dose'; NB011 concentration not given), FIG. 1B/FIG. 2
post-LTP in ACC [5] = conditions: recent report (Chen et al., 2014); cited from earlier work
[6] = target: adenylyl cyclase subtype 8 (AC8) (Homo sapiens, UniProt P40145); assay: cAMP assay in AC8 expressing cell line (biochemical screening for AC1 & 8 inhibitors); type: cell-based; conditions: for inhibition of AC8 activity (in words): 100 μM; for inhibition at 100 µM: read-out: Percent Inhibition AC8
Chain of adenylyl cyclase subtype 8 (AC8) (P40145 whole entry, species assumed): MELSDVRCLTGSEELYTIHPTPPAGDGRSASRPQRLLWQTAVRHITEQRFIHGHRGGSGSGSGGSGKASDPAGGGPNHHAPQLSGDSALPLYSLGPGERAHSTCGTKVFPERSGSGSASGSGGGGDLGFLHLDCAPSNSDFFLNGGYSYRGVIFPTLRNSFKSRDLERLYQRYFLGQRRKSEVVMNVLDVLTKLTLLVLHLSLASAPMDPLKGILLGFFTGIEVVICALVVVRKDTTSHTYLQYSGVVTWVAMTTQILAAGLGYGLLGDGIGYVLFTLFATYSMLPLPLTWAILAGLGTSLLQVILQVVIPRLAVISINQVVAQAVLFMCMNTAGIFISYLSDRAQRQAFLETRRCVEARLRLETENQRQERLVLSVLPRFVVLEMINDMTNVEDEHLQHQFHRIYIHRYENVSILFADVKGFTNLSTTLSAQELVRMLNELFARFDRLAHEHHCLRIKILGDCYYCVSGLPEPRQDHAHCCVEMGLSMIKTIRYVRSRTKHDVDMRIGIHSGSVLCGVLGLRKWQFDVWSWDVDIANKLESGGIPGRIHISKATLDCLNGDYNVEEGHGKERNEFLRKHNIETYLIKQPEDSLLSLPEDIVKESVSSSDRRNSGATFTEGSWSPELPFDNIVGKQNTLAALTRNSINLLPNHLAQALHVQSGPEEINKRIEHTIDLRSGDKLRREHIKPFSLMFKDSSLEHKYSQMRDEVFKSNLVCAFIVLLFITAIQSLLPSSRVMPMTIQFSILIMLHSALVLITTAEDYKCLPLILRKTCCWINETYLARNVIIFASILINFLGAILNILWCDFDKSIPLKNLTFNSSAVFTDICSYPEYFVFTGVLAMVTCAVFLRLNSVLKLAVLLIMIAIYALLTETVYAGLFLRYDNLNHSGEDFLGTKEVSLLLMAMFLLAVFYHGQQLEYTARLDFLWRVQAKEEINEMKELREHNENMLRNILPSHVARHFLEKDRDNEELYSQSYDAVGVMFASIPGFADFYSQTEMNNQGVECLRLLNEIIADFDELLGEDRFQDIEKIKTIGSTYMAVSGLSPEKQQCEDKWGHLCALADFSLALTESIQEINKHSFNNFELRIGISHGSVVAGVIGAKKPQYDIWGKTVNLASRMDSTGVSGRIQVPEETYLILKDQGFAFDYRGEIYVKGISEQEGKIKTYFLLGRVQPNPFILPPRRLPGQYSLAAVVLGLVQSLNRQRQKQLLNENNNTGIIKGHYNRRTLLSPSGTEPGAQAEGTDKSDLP

[7] = target: adenylyl cyclase subtype 1 (AC1) (Homo sapiens, UniProt Q08828); assay: cAMP assay in AC1 expressing cell line (biochemical screening for AC1 & 8 inhibitors); type: cell-based; conditions: for inhibition of AC1 activity (in words): 100 μM; for inhibition at 100 µM: read-out: Percent Inhibition AC1
Chain of adenylyl cyclase subtype 1 (AC1) (Q08828 whole entry): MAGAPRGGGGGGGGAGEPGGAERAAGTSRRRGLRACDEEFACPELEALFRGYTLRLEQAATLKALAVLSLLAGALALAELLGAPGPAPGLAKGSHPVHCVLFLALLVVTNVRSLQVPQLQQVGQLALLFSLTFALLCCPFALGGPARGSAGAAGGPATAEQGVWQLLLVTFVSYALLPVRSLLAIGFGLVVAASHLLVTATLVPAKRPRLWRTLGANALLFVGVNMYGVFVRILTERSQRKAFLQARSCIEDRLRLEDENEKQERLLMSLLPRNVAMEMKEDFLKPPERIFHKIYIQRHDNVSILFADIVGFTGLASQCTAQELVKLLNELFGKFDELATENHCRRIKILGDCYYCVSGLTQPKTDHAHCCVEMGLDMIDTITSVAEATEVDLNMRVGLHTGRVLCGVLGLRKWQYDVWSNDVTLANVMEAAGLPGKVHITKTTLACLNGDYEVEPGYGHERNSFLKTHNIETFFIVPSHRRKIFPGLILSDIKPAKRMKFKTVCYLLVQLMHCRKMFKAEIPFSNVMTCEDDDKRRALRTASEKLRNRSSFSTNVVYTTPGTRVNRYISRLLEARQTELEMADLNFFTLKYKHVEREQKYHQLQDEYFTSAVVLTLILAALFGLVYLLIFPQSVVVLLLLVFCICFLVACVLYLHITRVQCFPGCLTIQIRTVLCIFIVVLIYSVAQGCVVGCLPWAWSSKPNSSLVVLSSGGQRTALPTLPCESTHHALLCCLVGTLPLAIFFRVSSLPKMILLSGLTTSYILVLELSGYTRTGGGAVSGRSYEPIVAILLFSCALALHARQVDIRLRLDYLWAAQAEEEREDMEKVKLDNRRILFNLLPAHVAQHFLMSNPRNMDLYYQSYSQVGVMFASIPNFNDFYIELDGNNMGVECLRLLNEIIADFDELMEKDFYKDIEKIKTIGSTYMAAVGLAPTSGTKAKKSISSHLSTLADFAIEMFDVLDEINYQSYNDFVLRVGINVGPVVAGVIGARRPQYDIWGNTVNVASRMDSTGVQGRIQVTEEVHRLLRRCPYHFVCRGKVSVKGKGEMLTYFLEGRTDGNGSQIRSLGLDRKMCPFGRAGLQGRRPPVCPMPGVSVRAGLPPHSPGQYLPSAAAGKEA

post-LTP in ACC [8] = assay: post-LTP (ACC LTP) in ACC cortical slices; type: cell-based; conditions: 25 μM, ACC slices of adult mice, FIG. 1A

SMILES	morphine-induced place preference ([1]; mouse, in vivo)	total scratching (itching) responses ([2]; 100 mg/kg)	total scratching (itching) responses ([2]; 100 mg/kg, listed as GABApention)	morphine tolerance / morphine analgesic effect [3]	anxiety caused by nerve injury (EPM test) ([4]; 100 mg/kg i.p.)	induction of pre-LTP (pre-LTP in ACC)	effect on ACC LTP (post-LTP in ACC [5])	morphine-induced place preference ([1]; 100 mg/kg, morphine 10 mg/kg, after 9 days, FIG. 5)	total scratching (itching) responses ([2]; 5 mg/kg)	anxiety caused by nerve injury (EPM test) ([4]; 5 mg/kg, 7 days after injury)	morphine-induced place preference ([1]; 5 mg/kg, morphine 10 mg/kg, after 9 days, FIG. 5)	inhibition of AC8 activity (in words) [6]	inhibition at 100 µM [6]	total scratching (itching) responses ([2]; pretreatment (dose not given))	morphine tolerance / morphine analgesic effect ([3]; 1 mg/kg)	anxiety caused by nerve injury (EPM test) ([4]; low dose 1 mg/kg, 1 mg/kg)	inhibition of AC1 activity (in words) [7]	inhibition at 100 µM [7]	morphine-induced place preference ([1]; dose reduced to 1 mg/kg (not shown in figure))	induction of post-LTP (ACC LTP) (post-LTP in ACC [8])
Nc1ncnc2c1ncn2CCNCCCCCO [NB001, 5-((2-(6-amino-9H-purin-9-yl)ethyl)amino)pentane-1-ol]	significantly less time; also recorded: significant reduce; also recorded: expected effect was not produced	–	–	–	–	–	–	–	–	–	–	–	–	–	–	–	–	–	–	–
NCC1(CC(=O)O)CCCCC1 [GABApentin, reference compound]	–	neither GABApentin nor SQ22356 produce any significant effect	did not cause a significant reduction	did not produce a significant effect; also recorded: did not produce any significant effect	Neither GABApentin (100 mg/kg, i.p.) nor SQ22356 (5 mg/kg) significantly reduced; also recorded: no significant effect	not blocked	does not affect	did not produce any significant effect	–	–	–	–	–	–	–	–	–	–	–	–
Nc1ncnc2c1ncn2C1CCCO1 (centres unmarked) [SQ22356, reference compound]	–	–	–	no significant effect; also recorded: did not produce any significant effect	–	did not cause a significant decrease	–	–	did not show significantly reduction	Neither GABApentin (100 mg/kg, i.p.) nor SQ22356 (5 mg/kg) significantly reduced; also recorded: no significant effect	did not produce any inhibition	–	–	–	–	–	–	–	–	–
c1nc(N2CCOCC2)c2nc[nH]c2n1 [NB011, 4-(9H-purin-6-yl)morpholine]	–	–	–	significant greater analgesic effects; also recorded: reduced	–	inhibit; also recorded: decrease	–	–	–	significant reduction; also recorded: reduced anxiety	–	significant inhibition	86 ± 2%	significantly reduced	no significant effect	neither NB010 nor NB011 affected anxiety	significant inhibition	91 ± 3%	expected effect was not produced	–
Cc1ccc(OCCn2c(S)nc3c(N)ncnc32)cc1 [NB010]	–	–	–	significant greater analgesic effects; also recorded: reduced	–	inhibit; also recorded: blocked	–	–	–	significant reduction; also recorded: reduced anxiety	–	significant inhibition	88 ± 2%	significantly reduced	no significant effect	did not significantly decrease; also recorded: neither NB010 nor NB011 affected anxiety	significant inhibition	96 ± 4%	–	blocked
